We go through eleven molecules from ChEMBL document CHEMBL1201862, “PubChem BioAssay data set” (2004).

Holding throughout (assay): growth of human tumour cells (NCI), 48 h
Assay [1] deals with OVCAR-3.
In assay [2] the test system is NCI-H522.
Assay [3] has as its system KM12.
For assay [4], the system named is SW-620.
In assay [5] the test system is OVCAR-4.
Assay [6] has as its system TK-10.
Assay [7] deals with SN12C.
Assay [8] relates to U-251.
The subject of assay [9] is RXF 393.
Assay [10] has as its system SF-295.
Assay [11] concerns UO-31.
The test system of assay [12] is M14.
For assay [13], the system named is SNB-19.
Assay [14] concerns UACC-62.
In assay [15] the test system is MDA-MB-435.
Assay [16] has as its system ACHN.
Assay [17] concerns SF-539.
Assay [18] has as its system LOX IMVI.
Assay [19] has as its system HCT-15.
For assay [20], the system named is SK-MEL-2.

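A five-concentration, 48-hour dose response in 96-well plates underlies each endpoint, interpolated linearly between surrounding concentrations. GI50 is the concentration that inhibits growth by half.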 Calls of active or inactive are those of the source. Rule as the data show it: active = GI50 up to about 1.1 µM and inactive = higher. Positions of bridges follow the written chain, without caps; N, C: chain ends. Residues, ends and D or L forms follow the SMILES beside them. A value given as a limit tells only on which side of the number the result lay.

On to `C[C@]12CC[C@H](O)CC1=CC[C@@H]1C2CC[C@]2(C)c3nn(-c4ccc(F)cc4)nc3CC12` (some centres not stated), for which the GI50 in assay [1] was > 100 µM (inactive); in assay [2], 58.3 µM (inactive); in assay [3], 24.3 µM (inactive); in assay [4] it was > 100 µM (inactive); in assay [5], 16.6 µM (inactive); in assay [6] it was > 100 µM (inactive). The GI50 in assay [7] was 71 µM (inactive); in assay [8] it was 95.5 µM (inactive); in assay [9], 61.5 µM (inactive); in assay [10], 34 µM (inactive); in assay [11], 81.1 µM (inactive); in assay [12] it was 32.6 µM (inactive). Also, the GI50 in assay [13] was 73.3 µM (inactive); in assay [14], 43.7 µM (inactive); in [15], 87.3 µM (inactive); in assay [16], 33.1 µM (inactive); in assay [17] it was 18.2 µM (inactive).
As for `Cc1cc(C)c2ccc(N3CCNCC3)nc2n1`, the GI50 in assay [1], in [2], in [3], in assay [4], in [5] and in [6] was > 100 µM (inactive) throughout. For the same molecule, the GI50 in assay [7] was > 100 µM (inactive); in assay [8], > 100 µM (inactive); in [10], > 100 µM (inactive); in assay [11], 41.7 µM (inactive); in [12] it was > 100 µM (inactive); in assay [13], > 100 µM (inactive). The GI50 in assay [14] is > 100 µM (inactive); in assay [15] it was > 100 µM (inactive); in assay [18], > 100 µM (inactive); in [16], > 100 µM (inactive); in [19], over 100 µM; in assay [17], > 100 µM (inactive). Also, in assay [20], the GI50 was > 100 µM (inactive).
Regarding `Cc1cc(=O)[nH]c2cc(NC(=O)C(CCCNC(=N)N)NC(=O)OCc3ccccc3)ccc12` (configuration not stated), the GI50 in [1], in [2], in assay [3], in assay [4], in assay [5] and in assay [6] was > 100 µM (inactive) throughout. Further, the GI50 in assay [7] is > 100 µM (inactive); in [8] it was > 100 µM (inactive); in assay [10] it was 48.5 µM (inactive); in assay [11], > 100 µM (inactive); in assay [12], > 100 µM (inactive); in assay [13] it was > 100 µM (inactive). The GI50 in assay [14] is > 100 µM (inactive); in [15], > 100 µM (inactive); in assay [18], > 100 µM (inactive); in assay [16], > 100 µM (inactive); in assay [19] it was over 100 µM; in [17] it was > 100 µM (inactive). Besides, the GI50 in [20] was > 100 µM (inactive).
`O=C1CC(C(O)C(O)C(O)CO)CC(=O)N1` (configuration not stated): the GI50 in assay [1], in assay [2], in assay [3], in [4], in assay [5] and in assay [6] was > 100 µM (inactive) in each case. For the same molecule, the GI50 in [7], in [8], in assay [9], in assay [10], in assay [11] and in assay [12] was > 100 µM (inactive) throughout. For the same molecule, the GI50 in [13] is > 100 µM (inactive); in assay [15], > 100 µM (inactive); in [18] it was > 100 µM (inactive); in assay [16], > 100 µM (inactive); in assay [19] it was over 100 µM; in assay [17], > 100 µM (inactive).
For the molecule `COC(=O)C1(Cc2ccccc2)Cc2cc3c(cc2C1O)CCC3` (configuration not stated), the GI50 is 16.4 µM (inactive) in [1]; 17.4 µM (inactive) in assay [2]; 21.3 µM (inactive) in assay [3]; 13.2 µM (inactive) in assay [4]; 15 µM (inactive) in [5]; 25.9 µM (inactive) in assay [6]. The GI50 was 17.7 µM (inactive) in [7]; 15 µM (inactive) in assay [9]; 27 µM (inactive) in [10]; > 10 µM (inactive) in assay [11]; 16.9 µM (inactive) in assay [14]; 16.3 µM (inactive) in assay [15]. In addition, the GI50 was 19.1 µM (inactive) in assay [18], 17.1 µM (inactive) in assay [16], 30.5 µM in [19] and 18.2 µM (inactive) in [17].
As for `c1ccc(Cc2cc(-c3ccccc3)[nH]n2)cc1`, the GI50 in [1] is 0.0465 µM (active); in assay [2], 16.7 µM (inactive); in assay [3], 14 µM (inactive); in assay [4] it was 14.6 µM (inactive); in [6] it was 17.4 µM (inactive); in assay [7] it was 13.5 µM (inactive). The GI50 in assay [8] is 13.2 µM (inactive); in [9], 10.3 µM (inactive); in assay [10], 0.568 µM (active); in [11] it was 21.8 µM (inactive); in [12], 28.5 µM (inactive); in assay [13], 23.2 µM (inactive). Further, the GI50 in [14] was 14.4 µM (inactive); in assay [15] it was 10.3 µM (inactive); in assay [18], 15.1 µM (inactive); in assay [16] it was 15.8 µM (inactive); in assay [19], 18.5 µM; in assay [20], 16.5 µM (inactive).
On to `CC1(C)CCCCCCCCCC(C)(CCCO)C1=O` (configuration not stated), for which the GI50 in assay [1] was 19.6 µM (inactive); in assay [2], 15.4 µM (inactive); in assay [3], 18.4 µM (inactive); in [4], 19.7 µM (inactive); in assay [5], 15.5 µM (inactive); in assay [7] it was 18.2 µM (inactive). Besides, the GI50 in assay [8] was 16.8 µM (inactive); in assay [9], 19.7 µM (inactive); in assay [10], 18.6 µM (inactive); in assay [11], 12 µM (inactive); in assay [12], 14.3 µM (inactive); in assay [13], 17.8 µM (inactive). The GI50 is 18.4 µM (inactive) in assay [14]; 18.2 µM (inactive) in assay [15]; 17.6 µM (inactive) in assay [18]; 17.9 µM (inactive) in assay [16]; 17.8 µM in assay [19]; 15 µM (inactive) in [20].
Take `Cc1ccc(-c2cc(O)c3nc4ccccc4n3c2)cc1`: the GI50 in [1] was > 100 µM (inactive); in assay [2], 7.38 µM (inactive); in assay [3] it was > 100 µM (inactive); in [4] it was > 100 µM (inactive); in assay [5], > 100 µM (inactive); in [6], > 100 µM (inactive). The GI50 in assay [7], in [8], in [9], in assay [10], in [11] and in assay [12] was > 100 µM (inactive) throughout. Also, the GI50 was > 100 µM (inactive) in [13]; > 100 µM (inactive) in assay [14]; 5.27 µM (inactive) in [15]; 75 µM (inactive) in [18]; over 100 µM in assay [19]; > 100 µM (inactive) in assay [17].
As for `CN(C)Cc1cc(C(=O)/C=C/c2ccc(Cl)c(Cl)c2)cc(CN(C)C)c1O`, the GI50 in assay [1] was 1.59 µM (inactive); in assay [2], 1.56 µM (inactive); in assay [3] it was 1.82 µM (inactive); in [4], 1.45 µM (inactive); in assay [5], 4.61 µM (inactive); in assay [7], 2.25 µM (inactive). Besides, the GI50 in assay [8] is 3.08 µM (inactive); in assay [9] it was 2.48 µM (inactive); in [10] it was 3.38 µM (inactive); in [11] it was 1.83 µM (inactive); in assay [12], 2.02 µM (inactive); in assay [13], 2.56 µM (inactive). Moreover, the GI50 in [15] was 3.26 µM (inactive); in [18], 0.716 µM (active); in assay [16], 1.67 µM (inactive); in [19], 2.84 µM; in assay [17], 2.77 µM (inactive).
Regarding `CCC(C)C1NC(=O)C(CC(C)C)NC(=O)C(C(C)C)NC(=O)C2CSSCC(NC1=O)C(=O)N2` (configuration not stated) (cyclo(CCVLI); disulfide 1-2; configuration not given here), the GI50 in assay [1] was 0.187 µM (active); in [2], 0.142 µM (active); in assay [3], 0.0507 µM (active); in assay [4], 0.16 µM (active); in assay [5], 0.18 µM (active); in assay [6] it was 0.687 µM (active). Also, the GI50 was 0.192 µM (active) in [7]; 0.0385 µM (active) in assay [8]; 0.182 µM (active) in assay [10]; 2.16 µM (inactive) in [11]; 0.277 µM (active) in assay [12]; 0.166 µM (active) in assay [13]. The GI50 is 0.0904 µM (active) in [14]; 0.194 µM (active) in assay [15]; 0.0573 µM (active) in [18]; 0.458 µM (active) in assay [16]; 1.86 µM in [19]; 0.144 µM (active) in assay [17]. In addition, in assay [20], the GI50 is 0.142 µM (active).
Consider `C=C1C(=O)[C@]23C[C@H]1C[C@@H](O)[C@H]2[C@]1(COC3=O)[C@@H](OC(C)=O)CC[C@@](C)(COC(C)=O)[C@H]1C=O` [LOXOTHYRIN A], for which the GI50 is > 50 µM (inactive) in assay [1]; 7.28 µM (inactive) in assay [2]; > 50 µM (inactive) in assay [3]; 9.29 µM (inactive) in assay [4]; > 50 µM (inactive) in [5]; > 50 µM (inactive) in assay [6]. The GI50 is > 50 µM (inactive) in [7]; > 50 µM (inactive) in [8]; 17.2 µM (inactive) in assay [9]; > 50 µM (inactive) in assay [10]; > 50 µM (inactive) in [11]; > 50 µM (inactive) in assay [13]. For the same molecule, the GI50 in [14] was > 50 µM (inactive); in [15] it was > 50 µM (inactive); in assay [18], > 50 µM (inactive); in assay [16] it was > 50 µM (inactive); in assay [19], over 50 µM; in [20], > 50 µM (inactive).
